Data reported in PubChem BioAssay AID2060884 (Molecular Pharmacology Branch, DTP, NCI, 2025).
“And” between values parts separate entries of the source, which are not always exact repeats. Equal values may be shown once.

Tested on: NCI-H929 complex spheroids, viability % test/control
Assay: Anticancer human tumor NCI-H929 cell line growth inhibition [RAS];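 note: compound exposure lasted seven days before viability was read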;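 for viability, T/C: 100% = DMSO vehicle control viability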
Settings: for viability, T/C: stronger effect = lower value
Summary of the method: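 Agents were tested in combination matrices in half-log decrements from a top concentration at or near clinical Cmax (10 microM if undetermined). Targets were multi-cell spheroids of tumour lines plus HUVEC and MSC stromal cells.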

[1] = curve of first compound, second compound 0.000949 µM
[2] = curve of first compound, second compound 0.003 µM
[3] = curve of first compound, second compound 0.00949 µM
[4] = curve of first compound, second compound 0.03 µM
[5] = curve of first compound, second compound 0.0949 µM
[6] = curve of first compound, second compound 0.3 µM
[7] = second compound 0.000949 µM, first compound 0.0316 µM
[8] = second compound 0.000949 µM, first compound 0.1 µM
[9] = second compound 0.000949 µM, first compound 0.316 µM
[10] = second compound 0.000949 µM, first compound 1 µM
[11] = second compound 0.000949 µM, first compound 3.16 µM
[12] = second compound 0.000949 µM, first compound 10 µM
[13] = second compound 0.003 µM, first compound 0.0316 µM
[14] = second compound 0.003 µM, first compound 0.1 µM
[15] = second compound 0.003 µM, first compound 0.316 µM
[16] = second compound 0.003 µM, first compound 1 µM
[17] = second compound 0.003 µM, first compound 3.16 µM
[18] = second compound 0.003 µM, first compound 10 µM
[19] = second compound 0.00949 µM, first compound 0.0316 µM
[20] = second compound 0.00949 µM, first compound 0.1 µM
[21] = second compound 0.00949 µM, first compound 0.316 µM
[22] = second compound 0.00949 µM, first compound 1 µM
[23] = second compound 0.00949 µM, first compound 3.16 µM
[24] = second compound 0.00949 µM, first compound 10 µM
[25] = second compound 0.03 µM, first compound 0.0316 µM
[26] = second compound 0.03 µM, first compound 0.1 µM
[27] = second compound 0.03 µM, first compound 0.316 µM
[28] = second compound 0.03 µM, first compound 1 µM
[29] = second compound 0.03 µM, first compound 3.16 µM
[30] = second compound 0.03 µM, first compound 10 µM
[31] = second compound 0.0949 µM, first compound 0.0316 µM
[32] = second compound 0.0949 µM, first compound 0.1 µM
[33] = second compound 0.0949 µM, first compound 0.316 µM
[34] = second compound 0.0949 µM, first compound 1 µM
[35] = second compound 0.0949 µM, first compound 3.16 µM
[36] = second compound 0.0949 µM, first compound 10 µM
[37] = second compound 0.3 µM, first compound 0.0316 µM
[38] = second compound 0.3 µM, first compound 0.1 µM
[39] = second compound 0.3 µM, first compound 0.316 µM
[40] = second compound 0.3 µM, first compound 1 µM
[41] = second compound 0.3 µM, first compound 3.16 µM
[42] = second compound 0.3 µM, first compound 10 µM

Cc1nc(N2CCC3(CC2)COC(C)C3N)c(CO)nc1Sc1ccnc(N)c1Cl (configuration not stated) + CCn1c(-c2cc(N3CCN(C)CC3)cnc2C(C)OC)c2c3cc(ccc31)-c1csc(n1)CC(NC(=O)C1CC1C)C(=O)N1CCCC(N1)C(=O)OCC(C)(C)C2
IC50 [1]: > 10 µM | IC50 [2]: > 10 µM | IC50 [3]: > 10 µM | IC50 [4]: < 0.0316 µM | IC50 [5]: < 0.0316 µM | IC50 [6]: < 0.0316 µM | viability, T/C [7]: 104% | viability, T/C [8]: 96.9% | viability, T/C [9]: 108% | viability, T/C [10]: 105% | viability, T/C [11]: 113% | viability, T/C [12]: 108% | viability, T/C [13]: 101% | viability, T/C [14]: 102% | viability, T/C [15]: 104% | viability, T/C [16]: 107% | viability, T/C [17]: 110% | viability, T/C [18]: 107% | viability, T/C [19]: 118% | viability, T/C [20]: 123% | viability, T/C [21]: 118% | viability, T/C [22]: 124% | viability, T/C [23]: 88.4% | viability, T/C [24]: 119% | viability, T/C [25]: 31.8% | viability, T/C [26]: 25.4% | viability, T/C [27]: 27.2% | viability, T/C [28]: 27.8% | viability, T/C [29]: 24.9% | viability, T/C [30]: 19.7% | viability, T/C [31]: 6.44% | viability, T/C [32]: 6.29% | viability, T/C [33]: 4.23% | viability, T/C [34]: 5.24% | viability, T/C [35]: 4.2% | viability, T/C [36]: 2.67% | viability, T/C [37]: 4.38% | viability, T/C [38]: 3.24% | viability, T/C [39]: 2.87% | viability, T/C [40]: 3.05% | viability, T/C [41]: 2.74% | viability, T/C [42]: 1.82%

CCN1CCN(Cc2ccc(Nc3ncc(F)c(-c4cc(F)c5nc(C)n(C(C)C)c5c4)n3)nc2)CC1
viability, T/C (compound 0.00316 µM): 106% [middle of 4 runs] | viability, T/C (compound 0.01 µM): 101% (2×) and 100% and 102% | viability, T/C (compound 0.0316 µM): 108% [middle of 4 runs] | viability, T/C (compound 0.1 µM): 107% (2×) and 98.7% and 108% | viability, T/C (compound 0.316 µM): 117% (2×) and 102% and 115% | IC50 (curve of compound): > 1 µM and 0.774 µM and 0.695 µM

CC(C)NCC(C(=O)N1CCN(c2ncnc3c2C(C)CC3O)CC1)c1ccc(Cl)cc1 (configuration not stated) + C=CC(=O)N1CCN(c2nc(OCC3CCCN3C)nc3c(F)c(-c4nc(N)cc(C)c4C(F)(F)F)c(Cl)cc23)C(C)C1
IC50 (curve of first compound, second compound 0.00316 µM): 2.82 µM | IC50 (curve of first compound, second compound 0.01 µM): 3.07 µM | IC50 (curve of first compound, second compound 0.0316 µM): 4.68 µM | IC50 (curve of first compound, second compound 0.1 µM): 4.08 µM | IC50 (curve of first compound, second compound 0.316 µM): 2.49 µM | IC50 (curve of first compound, second compound 1 µM): 3.66 µM | viability, T/C (second compound 0.00316 µM, first compound 0.0316 µM): 102% | viability, T/C (second compound 0.00316 µM, first compound 0.1 µM): 101% | viability, T/C (second compound 0.00316 µM, first compound 0.316 µM): 108% | viability, T/C (second compound 0.00316 µM, first compound 1 µM): 101% | viability, T/C (second compound 0.00316 µM, first compound 3.16 µM): 44.4% | viability, T/C (second compound 0.00316 µM, first compound 10 µM): 12.1% | viability, T/C (second compound 0.01 µM, first compound 0.0316 µM): 103% | viability, T/C (second compound 0.01 µM, first compound 0.1 µM): 103% | viability, T/C (second compound 0.01 µM, first compound 0.316 µM): 105% | viability, T/C (second compound 0.01 µM, first compound 1 µM): 104% | viability, T/C (second compound 0.01 µM, first compound 3.16 µM): 48.5% | viability, T/C (second compound 0.01 µM, first compound 10 µM): 15.1% | viability, T/C (second compound 0.0316 µM, first compound 0.0316 µM): 97.5% | viability, T/C (second compound 0.0316 µM, first compound 0.1 µM): 103% | viability, T/C (second compound 0.0316 µM, first compound 0.316 µM): 108% | viability, T/C (second compound 0.0316 µM, first compound 1 µM): 103% | viability, T/C (second compound 0.0316 µM, first compound 3.16 µM): 67.6% | viability, T/C (second compound 0.0316 µM, first compound 10 µM): 16.1% | viability, T/C (second compound 0.1 µM, first compound 0.0316 µM): 101% | viability, T/C (second compound 0.1 µM, first compound 0.1 µM): 105% | viability, T/C (second compound 0.1 µM, first compound 0.316 µM): 110% | viability, T/C (second compound 0.1 µM, first compound 1 µM): 108% | viability, T/C (second compound 0.1 µM, first compound 3.16 µM): 60% | viability, T/C (second compound 0.1 µM, first compound 10 µM): 15.2% | viability, T/C (second compound 0.316 µM, first compound 0.0316 µM): 102% | viability, T/C (second compound 0.316 µM, first compound 0.1 µM): 105% | viability, T/C (second compound 0.316 µM, first compound 0.316 µM): 109% | viability, T/C (second compound 0.316 µM, first compound 1 µM): 106% | viability, T/C (second compound 0.316 µM, first compound 3.16 µM): 35.4% | viability, T/C (second compound 0.316 µM, first compound 10 µM): 15.4% | viability, T/C (second compound 1 µM, first compound 0.0316 µM): 114% | viability, T/C (second compound 1 µM, first compound 0.1 µM): 115% | viability, T/C (second compound 1 µM, first compound 0.316 µM): 108% | viability, T/C (second compound 1 µM, first compound 1 µM): 108% | viability, T/C (second compound 1 µM, first compound 3.16 µM): 56.3% | viability, T/C (second compound 1 µM, first compound 10 µM): 6.44%

CC(Nc1ccc2c(c1)OCCn1cc(N3C(=O)OCC3C(F)F)nc1-2)C(N)=O (configuration not stated) + CCn1c(-c2cc(N3CCN(C)CC3)cnc2C(C)OC)c2c3cc(ccc31)-c1csc(n1)CC(NC(=O)C1CC1C)C(=O)N1CCCC(N1)C(=O)OCC(C)(C)C2
IC50 [1]: 5.99 µM | IC50 [2]: 5.26 µM | IC50 [3]: 1.47 µM | IC50 [4]: < 0.0316 µM | IC50 [5]: < 0.0316 µM | IC50 [6]: < 0.0316 µM | viability, T/C [7]: 100% | viability, T/C [8]: 97.5% | viability, T/C [9]: 109% | viability, T/C [10]: 97.9% | viability, T/C [11]: 86.2% | viability, T/C [12]: 20.9% | viability, T/C [13]: 94.3% | viability, T/C [14]: 103% | viability, T/C [15]: 107% | viability, T/C [16]: 102% | viability, T/C [17]: 78.5% | viability, T/C [18]: 14.2% | viability, T/C [19]: 110% | viability, T/C [20]: 114% | viability, T/C [21]: 102% | viability, T/C [22]: 61.2% | viability, T/C [23]: 24.8% | viability, T/C [24]: 2.76% | viability, T/C [25]: 32.1% | viability, T/C [26]: 9.9% | viability, T/C [27]: 4.54% | viability, T/C [28]: 2.25% | viability, T/C [29]: 0.96% | viability, T/C [30]: 0.2% | viability, T/C [31]: 1.56% | viability, T/C [32]: 0.81% | viability, T/C [33]: 0.54% | viability, T/C [34]: 0.47% | viability, T/C [35]: 0.37% | viability, T/C [36]: 0.1% | viability, T/C [37]: 0.89% | viability, T/C [38]: 0.73% | viability, T/C [39]: 0.48% | viability, T/C [40]: 0.29% | viability, T/C [41]: 0.33% | viability, T/C [42]: 0.12%
